According to patent publication US5811444A, “Compositions for reducing abnormal stimulation of endothelin receptors and novel compounds” (Roussel Uclaf, priority 1994, dated 1998):
pIC50: −log10 of the molar value.

Tests used:
B receptor of endothelin = target: T1, B receptor of endothelin (Rattus norvegicus, UniProt P21451); experiment: Study of the activity on the B receptor of endothelin (displacement of 125I Endothelin, rat posterior cortex plus cerebellum membranes); type: binding; details: 25 °C, 60 minutes, pH 7.4, read-out: B receptor of endothelin IC/50
T1 construct: A membrane preparation is produced from the posterior cortex plus cerebellum of a rat; from tissue; host or cells: rat posterior cortex plus cerebellum, membranes
T1 sequence (P21451 27-442): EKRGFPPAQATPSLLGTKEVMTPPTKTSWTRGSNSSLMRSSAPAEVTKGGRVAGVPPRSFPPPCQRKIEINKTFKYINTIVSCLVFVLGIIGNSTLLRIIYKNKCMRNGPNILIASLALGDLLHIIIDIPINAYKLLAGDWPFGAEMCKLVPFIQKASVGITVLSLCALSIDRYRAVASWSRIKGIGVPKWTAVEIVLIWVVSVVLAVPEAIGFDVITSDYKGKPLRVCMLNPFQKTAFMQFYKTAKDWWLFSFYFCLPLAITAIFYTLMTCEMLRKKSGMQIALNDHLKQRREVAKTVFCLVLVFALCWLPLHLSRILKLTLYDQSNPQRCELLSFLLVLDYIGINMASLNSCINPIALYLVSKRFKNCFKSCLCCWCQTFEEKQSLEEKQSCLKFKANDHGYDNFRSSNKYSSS
Procedure: STUDY OF THE ACTIVITY ON THE B RECEPTOR OF ENDOTHELIN
A membrane preparation is produced from the posterior cortex plus cerebellum of a rat. The tissue is ground up in a POLYTRON in a 50 mM Tris buffer pH=7.4.
After 30 minutes at 25° C. (W.B.) the homogenate is centrifuged at 30000 g for 15 minutes (2 centrifugations with intermediate take-up in the Tris buffer pH. 7.4).
(§1) The pellets are resuspended in an incubation buffer (25 mM Tris, 5 microg/ml pepstatin A, 3 microg/ml aprotinin, 0.1 mM PMSF, 3 mM EDTA, 1 mM EGTA pH 7.4).
(§2) 2 ml aliquots are distributed into hemolysis tubes and ^125 I Endothelin (approximately 50000 dpm/tube) and the product to be studied are added. (The product is first tested at 3×10^-5 M three times). When the tested product displaces more than 50% of the radioactivity specifically bound to the receptor, it is tested again according to a range of 7 concentrations so as to determine the concentration which inhibits the radioactivity specifically bound to the receptor by 50%. In this way the 50% inhibitory concentration is determined.
(§3) The non-specific bond is determined by the addition of 10^-6 M endothelin (three times). After incubation at 25° C. for 60 minutes, putting back in the water bath at 0° C., for 5 minutes, filtering under reduced pressure, rinsing with Tris buffer 7.4, the radioactivity is counted in the presence of scintillating Triton. […]

A receptor of endothelin = target: T2, A receptor of endothelin (Rattus norvegicus, UniProt P26684); experiment: Study of the activity on the A receptor of endothelin (displacement of 125I Endothelin, rat heart ventricle membranes); type: binding; details: rat heart (ventricles) membranes, 25 °C, 60 minutes, pH 7.4, read-out: A receptor of endothelin IC/50
T2 construct: A membrane preparation is produced from the heart (ventricles) of a rat; from tissue; host or cells: rat heart ventricles, membranes
T2 sequence (P26684 21-426): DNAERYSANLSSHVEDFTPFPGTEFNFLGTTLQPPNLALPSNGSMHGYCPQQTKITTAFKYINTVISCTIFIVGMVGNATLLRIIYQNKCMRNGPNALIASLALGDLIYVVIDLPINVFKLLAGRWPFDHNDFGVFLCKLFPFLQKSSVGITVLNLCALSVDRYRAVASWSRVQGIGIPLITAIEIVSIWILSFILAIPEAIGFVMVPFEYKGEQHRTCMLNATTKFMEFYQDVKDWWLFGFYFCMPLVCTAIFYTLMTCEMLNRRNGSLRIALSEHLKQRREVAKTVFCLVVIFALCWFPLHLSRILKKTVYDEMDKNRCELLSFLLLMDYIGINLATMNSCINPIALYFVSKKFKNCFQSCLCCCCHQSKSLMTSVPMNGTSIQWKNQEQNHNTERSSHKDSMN
Procedure: STUDY OF THE ACTIVITY ON THE A RECEPTOR OF ENDOTHELIN
A membrane preparation is produced from the heart (ventricles) of a rat. The tissue is ground up in a POLYTRON in a 50 mM Tris buffer pH=7.4.
After 30 minutes at 25° C. (W.B.) the homogenate is centrifuged at 30000 g for 15 minutes (2 centrifugations with intermediate take up in the Tris buffer pH. 7.4).
as §1, §2, §3

| SMILES | pIC50 (B receptor of endothelin) | pIC50 (A receptor of endothelin) |
| --- | --- | --- |
| CCCCc1nc(S(=O)(=O)c2ccc(OC)cc2)c(C(=O)O)n1Cc1cc2c(cc1Cl)OCO2 [Example 10, 2-butyl-1-((6-chloro-1,3-benzodioxol-5-yl)methyl)-4-((4-methoxyphenyl)sulphonyl)-1H-imidazole-5-carboxylic acid] | 6.60 | 7.04 |
| COc1ccc(Sc2nc(C)n(Cc3cc4c(cc3Cl)OCO4)c2C(=O)O)cc1 [Example 21, 1-((6-chloro-1,3-benzodioxol-5-yl)methyl)-4-((4-methoxyphenyl)thio)-2-methyl-1H-imidazole-5-carboxylic acid] | 6.46 | 6.96 |
